In patent US12600728B2, “Interleukin-17 inhibitors” (priority 2020, dated 2026) one finds IC50 data, which are given here for 21 molecules.

Structures are written as SMILES. Like-named read-outs stand apart in the source and are kept apart here.

Assay [1] deals with recombinant human IL-17AA (Homo sapiens, UniProt Q16552). Kind of assay: IL-6 release from NHDF cells, IL-17AA plus TNF-α stimulation. It counts as cell-based. As to conditions: 24 hours, IL-6 by ELISA. The procedure, abridged:
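ELISA measured IL-6 in supernatants after 24 h at 37° C of NHDF cells with a compound/cytokine cocktail, pre-mixed 30 min at room temperature. Duplicates; 0.1% DMSO or 20% plasma final. IC50 from IL-6 remaining after subtracting the TNF-α-alone signal.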

Assay [2] deals with biotinylated human IL-17A / AF647-labeled human IL-17RA (Homo sapiens, UniProt Q16552). Description: Human IL-17A×IL-17RA TR-FRET assay. It counts as binding. The procedure, abridged: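 Compounds tested in duplicate at each concentration; neutral controls contain all components with DMSO in place of compound.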
Chain of biotinylated human IL-17A / AF647-labeled human IL-17RA (Q16552 24-155): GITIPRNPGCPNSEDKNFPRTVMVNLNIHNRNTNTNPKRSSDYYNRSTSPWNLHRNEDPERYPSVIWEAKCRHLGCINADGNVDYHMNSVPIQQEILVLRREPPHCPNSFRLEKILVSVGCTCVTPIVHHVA
[3] abbreviates: NHDF cells, IL-17AA 30 pM plus TNF-α 6 pM, read-out: IL17AA + TNF IC50 IL-6.
Where [4] appears, read: TR-FRET, biotinylated human IL-17A 5 nM, AF647-labeled human IL-17RA 30 nM, read-out: IL17AA FRET/ IL17Rawt IC50.
Where [5] appears, read: NHDF cells, IL-17AA 30 pM + TNF-α 6 pM, read-out: IL17AA + TNF IC50 IL-6.
The mark [6] stands for this setting: IL17AA + TNF IC50 IL-6, NHDF cells, IL-17AA 30 pM plus TNF-α 6 pM.
Setting [7] is: IL17AA FRET/ IL17Rawt IC50, TR-FRET, biotinylated human IL-17A 5 nM, AF647-labeled human IL-17RA 30 nM.
Setting [8] is: TR-FRET, 5 nM IL-17A, 30 nM IL-17RA, read-out: IL17AA FRET/ IL17Rawt IC50.

Chain of recombinant human IL-17AA (Q16552 24-155): as above

Turning to `CCc1nocc1C(=O)N[C@H](C(=O)Nc1ccc(-c2c(C)cc[n+]([O-])c2C)cc1)C1CCCC1` [Example 34, (S)-3-(4-(2-cyclopentyl-2-(3-ethylisoxazole-4-carboxamido)acetamido)phenyl)-2,4-dimethylpyridine 1-oxide], the values for the IC50 in assay [1] (setting [3]) and in assay [2] (setting [4]) were 100 nM and 81 nM, respectively.

On to `Cc1ccnc(C)c1-c1ccc(NC(=O)[C@@H](NC(=O)c2ccnn2C)[C@H]2CC[C@H](C)CC2)cc1` [compound 138, N-((S)-2-((4-(2,4-dimethylpyridin-3-yl)phenyl)amino)-1-((1r,4S)-4-methylcyclohexyl)-2-oxoethyl)-1-methyl-1H-pyrazole-5-carboxamide, reference compound], for which the IC50 in assay [1] (NHDF cells, IL-17AA 30 pM + TNF-α 6 pM, reference examples (pyridines), read-out: IL 17AA + TNF IC50 IL-6) worked out at 55 nM; in assay [2] (TR-FRET, 5 nM IL-17A, 30 nM IL-17RA, reference examples (pyridines), read-out: IL17AA FRET/ IL17RAwt IC50) it was 552 nM.

For `Cc1c(-c2ccc(NC(=O)[C@@H](NC(=O)c3ccnn3C)C3CCCCC3)cc2F)c(Cl)cc[n+]1[O-]` (single isomer, unassigned) [Example 2a], the figures for the IC50 in assay [1] (setting [3]) and in assay [2] (setting [4]) were 37 nM and 49 nM, respectively.

On to `Cc1cc[n+]([O-])c(C)c1-c1ccc(NC(=O)C(NC(=O)c2ccnn2C)C2CCCC(F)(F)C2)cc1` (stereo not drawn) [Example 147, 3-(4-(2-(3,3-difluorocyclohexyl)-2-(1-methyl-1H-pyrazole-5-carboxamido)acetamido)phenyl)-2,4-dimethylpyridine 1-oxide], for which the IC50 turned out to be 193 nM in assay [1] (setting [5]) and 513 nM in assay [2] (IL17AA FRET/ IL17Rawt IC50, TR-FRET, 5 nM IL-17A, 30 nM IL-17RA).

`Cc1cc[n+]([O-])c(C)c1-c1ccc(NC(=O)[C@@H](NC(=O)c2ccnn2C(C)C)C2CCCCCC2)cc1` [Example 40, (S)-3-(4-(2-cycloheptyl-2-(1-isopropyl-1H-pyrazole-5-carboxamido)acetamido)phenyl)-2,4-dimethylpyridine 1-oxide]: the values for the IC50 in assay [1] (setting [3]) and in assay [2] (setting [4]) were 2 nM and 25 nM, respectively.

As for `Cc1cc[n+]([O-])c(C)c1-c1ccc(NC(=O)C(NC(=O)c2ccnn2C)C2CCC(C(F)(F)F)CC2)cc1F` [Example 91, 3-(2-fluoro-4-((S)-2-(1-methyl-1H-pyrazole-5-carboxamido)-2-((1r,4S)-4-(trifluoromethyl)cyclohexyl)acetamido)phenyl)-2,4-dimethylpyridine 1-oxide], the IC50 in assay [1] (setting [6]) is 39 nM; in assay [2] (setting [7]) it was 134 nM.

Consider `Cc1nscc1C(=O)N[C@H](C(=O)Nc1ccc(-c2c(Cl)cc[n+]([O-])c2C)c(F)c1)C1CCCCC1` [Example 17, 4-chloro-3-(4-((S)-2-cyclohexyl-2-(3-methylisothiazole-4-carboxamido)acetamido)-2-fluorophenyl)-2-methylpyridine 1-oxide], for which the IC50 in assay [1] (setting [3]) came out at 18 nM; in assay [2] (setting [4]), 118 nM.

As for `COCc1nocc1C(=O)N[C@H](C(=O)Nc1ccc(-c2c(C)cc[n+]([O-])c2C)cc1)C1CCC(F)(F)CC1` [Example 33, (S)-3-(4-(2-(4,4-difluorocyclohexyl)-2-(3-(methoxymethyl)isoxazole-4-carboxamido)acetamido)phenyl)-2,4-dimethylpyridine 1-oxide], the results for the IC50 in assay [1] (setting [3]) and in assay [2] (setting [4]) were 88 nM and 1150 nM, respectively.

`CCc1nocc1C(=O)NC(C(=O)Nc1ccc(-c2c(C)cc[n+]([O-])c2C)cc1)C1CCC(C(F)(F)F)CC1` [Example 8, 3-(4-((S)-2-(3-ethylisoxazole-4-carboxamido)-2-((1r,4S)-4-(trifluoromethyl)cyclohexyl)acetamido)phenyl)-2,4-dimethylpyridine 1-oxide]: the values for the IC50 in assay [1] (setting [3]) and in assay [2] (setting [4]) were 4 nM and 41 nM, respectively.

With `Cc1cc[n+]([O-])c(C)c1-c1ccc(NC(=O)[C@@H](NC(=O)c2ccnn2C)[C@H]2CCC[C@@H](F)CC2)cc1` [Example 215, 3-(4-((S)-2-((1S,4R)-4-fluorocycloheptyl)-2-(1-methyl-1H-pyrazole-5-carboxamido)acetamido)phenyl)-2,4-dimethylpyridine 1-oxide], the IC50 in assay [1] (setting [5]) stood at 138 nM; in assay [2] (setting [8]), 755 nM.

Consider `Cc1c(-c2ccc(NC(=O)[C@@H](NC(=O)c3ccnn3C)C(c3ccccc3)c3ccccc3)cc2)c(Cl)cc[n+]1[O-]` [Example 69, (S)-4-chloro-2-methyl-3-(4-(2-(1-methyl-1H-pyrazole-5-carboxamido)-3,3-diphenylpropanamido)phenyl)pyridine 1-oxide], for which the IC50 was determined as 20 nM in assay [1] (setting [3]) and 90 nM in assay [2] (setting [4]).

For the molecule `Cc1nocc1C(=O)N[C@H](C(=O)Nc1ccc(-c2c(Cl)cc[n+]([O-])c2C)cc1)C1CCC(F)(F)CC1` [Example 49, (S)-4-chloro-3-(4-(2-(4,4-difluorocyclohexyl)-2-(3-methylisoxazole-4-carboxamido)acetamido)phenyl)-2-methylpyridine 1-oxide], the IC50 in assay [1] (setting [3]) was found to be 31 nM; in assay [2] (setting [4]), 58 nM.

On to `CCn1nccc1C(=O)NC(C(=O)Nc1ccc(-c2c(Cl)cc[n+]([O-])c2C)c(F)c1)[C@H]1C[C@@H]2C[C@@H]2C1` (stereo partly drawn) [Example 58, 3-(4-(2-((1R,3s,5S)-bicyclo[3.1.0]hexan-3-yl)-2-(1-ethyl-1H-pyrazole-5-carboxamido)acetamido)-2-fluorophenyl)-4-chloro-2-methylpyridine 1-oxide], for which the results for the IC50 in assay [1] (setting [3]) and in assay [2] (setting [4]) were 12 nM and 44 nM, respectively.

For `Cc1cc[n+]([O-])c(C)c1-c1ccc(NC(=O)[C@@H](NC(=O)c2ccnn2C)[C@H]2CC=C(F)CC2)cc1` (single isomer, unassigned) [Example 12b, 3-(4-((S)-2-((R)-4-fluorocyclohex-3-en-1-yl)-2-(1-methyl-1H-pyrazole-5-carboxamido)acetamido)phenyl)-2,4-dimethylpyridine 1-oxide or 3-(4-((S)-2-((S)-4-fluorocyclohex-3-en-1-yl)-2-(1-methyl-1H-pyrazole-5-carboxamido)acetamido)phenyl)-2,4-dimethylpyridine 1-oxide], the IC50 is 8 nM in assay [1] (setting [3]) and 151 nM in assay [2] (setting [4]).

Regarding `Cc1c[n+]([O-])cc(C)c1-c1ccc(NC(=O)[C@@H](NC(=O)c2ccnn2C)C2CCCCCC2)cc1` [Example 99, (S)-4-(4-(2-cycloheptyl-2-(1-methyl-1H-pyrazole-5-carboxamido)acetamido)phenyl)-3,5-dimethylpyridine 1-oxide], the IC50 in assay [1] (setting [3]) was determined as 81 nM; in assay [2] (setting [4]), 208 nM.

For `Cc1c(-c2ccc(NC(=O)[C@@H](NC(=O)c3ccnn3C)C3CCC(F)(F)CC3)cc2F)c(Cl)cc[n+]1[O-]` [Example 107, 4-chloro-3-(4-((S)-2-(4,4-difluorocyclohexyl)-2-(1-methyl-1H-pyrazole-5-carboxamido)acetamido)-2-fluorophenyl)-2-methylpyridine 1-oxide], the IC50 in assay [1] (setting [3]) was 15 nM; in assay [2] (setting [4]), 19 nM.

Take `CCn1nccc1C(=O)NC(C(=O)Nc1ccc(-c2c(Cl)cc[n+]([O-])c2C)c(F)c1)C1CCC(F)(F)CC1` (stereo not drawn) [Example 108, 4-chloro-3-(4-(2-(4,4-difluorocyclohexyl)-2-(1-ethyl-1H-pyrazole-5-carboxamido)acetamido)-2-fluorophenyl)-2-methylpyridine 1-oxide]: the IC50 in assay [1] (setting [6]) stood at 7 nM; in assay [2] (setting [7]), 30 nM.

As for `Cc1cc[n+]([O-])c(C)c1-c1ccc(NC(=O)[C@H](Cc2ccccc2Cl)NC(=O)c2ccc3n2CCN(C)C3)cc1` [Example 130, (S)-3-(4-(3-(2-chlorophenyl)-2-(2-methyl-1,2,3,4-tetrahydropyrrolo[1,2-a]pyrazine-6-carboxamido)propanamido)phenyl)-2,4-dimethylpyridine 1-oxide], the values for the IC50 in assay [1] (setting [3]) and in assay [2] (setting [4]) were 956 nM and 124 nM, respectively.

As for `Cc1cc[n+]([O-])c(C)c1-c1ccc(NC(=O)C(NC(=O)c2ccc3n2CCN(C)C3)C2CC3CC3C2)cc1` (single isomer, unassigned) [Example 192], the IC50 in assay [1] (setting [5]) is 142 nM; in assay [2] (setting [8]), 151 nM.

Turning to `Cc1cc[n+]([O-])c(C)c1-c1ccc(NC(=O)C(NC(=O)c2ccc3n2CCN(C)C3)C2CCC(C(F)(F)F)CC2)cc1` [Example 125, 2,4-dimethyl-3-(4-((S)-2-(2-methyl-1,2,3,4-tetrahydropyrrolo[1,2-a]pyrazine-6-carboxamido)-2-((1r,4S)-4-(trifluoromethyl)cyclohexyl)acetamido)phenyl)pyridine 1-oxide], the IC50 in assay [1] (setting [3]) came out at 18 nM; in assay [2] (setting [4]) it was 174 nM.

With `Cc1c(-c2ccc(NC(=O)[C@@H](NC(=O)c3ccnn3C)C3CCCCC3)c(F)c2)c(Cl)cc[n+]1[O-]` [Example 59, (S)-4-chloro-3-(4-(2-cyclohexyl-2-(1-methyl-1H-pyrazole-5-carboxamido)acetamido)-3-fluorophenyl)-2-methylpyridine 1-oxide], the IC50 in assay [1] (setting [3]) amounted to 56 nM; in assay [2] (setting [4]), 49 nM.
